Where two headings read alike, the source gives them in different places.
Key:
Type in all cases: cell-based
AsPC-1 (K-Ras G12D) [1] = experiment: CellTiter-Glo cell viability assay, AsPC-1; details: Homo sapiens, ASPC1, 120 h
Method in brief: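 Compounds dispensed directly onto seeded AsPC-1 (K-Ras G12D) or NCI-H358 (K-Ras G12C) cells; CellTiter-Glo luminescence read on day 5 after ~30 min equilibration to room temperature. Signal normalized to DMSO average (%) and fit by four-parameter logistic.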

NCI-H358 (K-Ras G12C) = experiment: CellTiter-Glo cell viability assay, H358; details: Homo sapiens, NCI-H358, 120 h, NCI-H358, K-Ras G12C, 5-day treatment; read-out: H358 Cell Viability IC50
Experimental: Determination of Cell Viability in RAS Mutant Cancer Cell Lines
Protocol: CellTiter-Glo® Cell Viability Assay
Note—The following protocol describes a procedure for monitoring cell viability of K-Ras mutant cancer cell lines in response to a compound of the invention. Other RAS isoforms may be employed, though the number of cells to be seeded will vary based on cell line used.
Test compounds (132.5 nL) were directly dispensed into the assay plates containing cells. […] On day 5, assay plates and their contents were equilibrated to room temperature for approximately 30 minutes. […] Luminescence was measured using the PerkinElmer Enspire. Data were normalized by the following: (Sample signal/Avg. DMSO)*100. The data were fit using a four-parameter logistic fit.

AsPC-1 (K-Ras G12D) [2] = experiment: Potency assay: pERK in AsPC-1 cells; details: Homo sapiens
[3] = AsPC-1, K-Ras G12D, 5-day treatment, read-out: AsPC-1 Cell Viability IC50
[4] = ASPC1, AsPC-1 cells, K-Ras G12D, read-out: pERK EC50 (AsPC-1 KRAS G12D)

Q: What does the source list for `CCn1c(-c2cnccc2COC)c2c3cc(ccc31)-c1cccc(c1)C[C@H](NC(=O)[C@H](C(C)C)N(C)C(=O)CCN=C=NCc1ccc(OC)cc1)C(=O)N1CCC[C@H](N1)C(=O)OCC(C)(C)C2` (atropisomer, axis not shown) [18 A and B]?
A: IC50 (AsPC-1 (K-Ras G12D) [1]; [3]): 1000 to 10000 nM; IC50 (NCI-H358 (K-Ras G12C)): 1000 to 10000 nM

Q: With `CCn1c(-c2cnccc2COC)c2c3cc(ccc31)-c1cc(O)cc(c1)C[C@H](NC(=O)[C@H](C(C)C)N(C)C(=O)CCN(C)C(=O)[C@H]1CN1)C(=O)N1CCC[C@H](N1)C(=O)OCC(C)(C)C2` (single isomer, unassigned) [Compound 41] as the molecule, how does the IC50 (AsPC-1 (K-Ras G12D) [1]; [3]) read?
A: Its IC50 is over 10000 nM.

Q: And the IC50 (NCI-H358 (K-Ras G12C))?
A: Its IC50 is 10 to 100 nM.

Q: How did the IC50 (AsPC-1 (K-Ras G12D) [1]; [3]) turn out when `CCn1c(-c2cnccc2COC)c2c3cc(ccc31)-c1cccc(c1)C[C@H](NC(=O)[C@H](C(C)C)N(C)C(=O)CCN=C=NCCCSC)C(=O)N1CCC[C@H](N1)C(=O)OCC(C)(C)C2` [16 A and B] was run?
A: Its IC50 is 1000 to 10000 nM.

Q: What about the IC50 (NCI-H358 (K-Ras G12C)) of the same molecule?
A: The IC50 was 1000 to 10000 nM.

Q: Which results are given for `CCn1c(-c2cnccc2COC)c2c3cc(ccc31)-c1cccc(c1)C[C@H](NC(=O)[C@H](C(C)C)N(C)C(=O)CCN=C=NCc1ccccc1)C(=O)N1CCC[C@H](N1)C(=O)OCC(C)(C)C2` [19 A and B]?
A: IC50 (AsPC-1 (K-Ras G12D) [1]; [3]): 100 to 1000 nM; IC50 (NCI-H358 (K-Ras G12C)): 1000 to 10000 nM

Q: `CCn1c(-c2cnccc2COC)c2c3cc(ccc31)-c1cccc(c1)C[C@H](NC(=O)[C@H](C(C)C)N(C)C(=O)CCN=C=Nc1ccccc1OC)C(=O)N1CCC[C@H](N1)C(=O)OCC(C)(C)C2` [20 A and B] was tested. Which IC50 (AsPC-1 (K-Ras G12D) [1]; [3]) did it give?
A: The IC50 was over 10000 nM.

Q: And the IC50 (NCI-H358 (K-Ras G12C))?
A: Its IC50 is 1000 to 10000 nM.

Q: How did the IC50 (AsPC-1 (K-Ras G12D) [1]; [3]) turn out when `CCn1c(-c2cnccc2COC)c2c3cc(ccc31)-c1cccc(c1)C[C@H](NC(=O)[C@H](C(C)C)N(C)C(=O)CCN=C=NCCOC)C(=O)N1CCC[C@H](N1)C(=O)OCC(C)(C)C2` [23 A and B] was run?
A: Its IC50 is 1000 to 10000 nM.

Q: What about the IC50 (NCI-H358 (K-Ras G12C)) of the same molecule?
A: The IC50 was 1000 to 10000 nM.

Q: What does the source list for `CCn1c(-c2cnccc2COC)c2c3cc(ccc31)-c1cccc(c1)C[C@H](NC(=O)[C@H](C(C)C)N(C)C(=O)CCN=C=Nc1ccc(OC)cc1OC)C(=O)N1CCC[C@H](N1)C(=O)OCC(C)(C)C2` [24 A and B]?
A: IC50 (AsPC-1 (K-Ras G12D) [1]; [3]): > 10000 nM; IC50 (NCI-H358 (K-Ras G12C)): 1000 to 10000 nM

Q: With `CCn1c(-c2cnccc2COC)c2c3cc(ccc31)-c1cccc(c1)C[C@H](NC(=O)[C@H](C(C)C)N(C)C(=O)CCN=C=NCc1c(OC)cccc1OC)C(=O)N1CCC[C@H](N1)C(=O)OCC(C)(C)C2` [62 A and B] as the molecule, how does the IC50 (AsPC-1 (K-Ras G12D) [1]; [3]) read?
A: The IC50 was 1000 to 10000 nM.

Q: And the IC50 (NCI-H358 (K-Ras G12C))?
A: The IC50 was 1000 to 10000 nM.

Q: With `CCn1c(-c2cnccc2COC)c2c3cc(ccc31)-c1cccc(c1)C[C@H](NC(=O)[C@H](C(C)C)N(C)C(=O)CCN=C=NCCc1cccs1)C(=O)N1CCC[C@H](N1)C(=O)OCC(C)(C)C2` [68 A and B] as the molecule, how does the IC50 (AsPC-1 (K-Ras G12D) [1]; [3]) read?
A: The IC50 was 1000 to 10000 nM.

Q: And the IC50 (NCI-H358 (K-Ras G12C))?
A: The IC50 was 1000 to 10000 nM.

Q: With `CCn1c(-c2cnccc2COC)c2c3cc(ccc31)-c1cc(O)cc(c1)C[C@H](NC(=O)[C@H](C(C)C)N(C)C(=O)[C@H]1CCN(C(=O)[C@@H]3CN3)C1)C(=O)N1CCC[C@H](N1)C(=O)OCC(C)(C)C2` [Compound 2] as the molecule, how does the IC50 (AsPC-1 (K-Ras G12D) [1]; [3]) read?
A: Its IC50 is over 10000 nM.

Q: And the IC50 (NCI-H358 (K-Ras G12C))?
A: The IC50 was 10 to 100 nM.

Q: Which IC50 (AsPC-1 (K-Ras G12D) [1]; [3]) does the source give for `CCn1c(-c2cnccc2COC)c2c3cc(ccc31)-c1cc(O)cc(c1)C[C@H](NC(=O)[C@H](C(C)C)N(C)C(=O)C1CCN(C(=O)[C@H]3CN3)CC1)C(=O)N1CCC[C@H](N1)C(=O)OCC(C)(C)C2` [Compound 3] here?
A: Its IC50 is over 10000 nM.

Q: What about the IC50 (NCI-H358 (K-Ras G12C)) of the same molecule?
A: Its IC50 is 100 to 1000 nM.

Q: Which results are given for `CCn1c(-c2cnccc2COC)c2c3cc(ccc31)-c1cc(O)cc(c1)C[C@H](NC(=O)[C@H](C(C)C)N(C)C(=O)C1CCN(C(=O)[C@@H]3CN3)CC1)C(=O)N1CCC[C@H](N1)C(=O)OCC(C)(C)C2` [Compound 4]?
A: IC50 (AsPC-1 (K-Ras G12D) [1]; [3]): > 10000 nM; IC50 (NCI-H358 (K-Ras G12C)): 100 to 1000 nM

Q: What does the source list for `CCn1c(-c2cnccc2COC)c2c3cc(ccc31)-c1cc(O)cc(c1)C[C@H](NC(=O)[C@H](C(C)C)N(C)C(=O)C1CN(C(=O)[C@H]3CN3)C1)C(=O)N1CCC[C@H](N1)C(=O)OCC(C)(C)C2` [Compound 5]?
A: IC50 (AsPC-1 (K-Ras G12D) [1]; [3]): > 10000 nM; IC50 (NCI-H358 (K-Ras G12C)): 10 to 100 nM

Q: Which results are given for `CCn1c(-c2cnccc2COC)c2c3cc(ccc31)-c1cc(O)cc(c1)C[C@H](NC(=O)[C@H](C(C)C)N(C)C(=O)C1CN(C(=O)[C@@H]3CN3)C1)C(=O)N1CCC[C@H](N1)C(=O)OCC(C)(C)C2` [Compound 6]?
A: IC50 (AsPC-1 (K-Ras G12D) [1]; [3]): > 10000 nM; IC50 (NCI-H358 (K-Ras G12C)): 100 to 1000 nM

Q: Which results are given for `CCn1c(-c2cnccc2COC)c2c3cc(ccc31)-c1cc(O)cc(c1)C[C@H](NC(=O)[C@H](C(C)C)N(C)C(=O)CCN(C)C(=O)[C@@H]1CN1)C(=O)N1CCC[C@H](N1)C(=O)OCC(C)(C)C2` [Compound 40]?
A: IC50 (AsPC-1 (K-Ras G12D) [1]; [3]): > 10000 nM; IC50 (NCI-H358 (K-Ras G12C)): 100 to 1000 nM

Q: What does the source list for `CCn1c(-c2cnccc2COC)c2c3cc(ccc31)-c1cc(O)cc(c1)C[C@H](NC(=O)[C@H](C(C)C)N(C)C(=O)N1CCCN(C(=O)[C@H]3CN3)CC1)C(=O)N1CCC[C@H](N1)C(=O)OCC(C)(C)C2` [Compound 44]?
A: IC50 (AsPC-1 (K-Ras G12D) [1]; [3]): 1000 to 10000 nM; IC50 (NCI-H358 (K-Ras G12C)): < 10 nM

Q: What does the source list for `CCn1c(-c2cnccc2COC)c2c3cc(ccc31)-c1cc(O)cc(c1)C[C@H](NC(=O)[C@H](C(C)C)N(C)C(=O)N1CCCN(C(=O)[C@@H]3CN3)CC1)C(=O)N1CCC[C@H](N1)C(=O)OCC(C)(C)C2` [Compound 45]?
A: IC50 (AsPC-1 (K-Ras G12D) [1]; [3]): > 10000 nM; IC50 (NCI-H358 (K-Ras G12C)): 100 to 1000 nM

Q: Which IC50 (AsPC-1 (K-Ras G12D) [1]; [3]) does the source give for `CCn1c(-c2cnccc2COC)c2c3cc(ccc31)-c1cc(O)cc(c1)C[C@H](NC(=O)[C@H](C(C)C)N(C)C(=O)c1ccc(NC(=O)[C@@H]3CN3)cn1)C(=O)N1CCC[C@H](N1)C(=O)OCC(C)(C)C2` [Compound 46] here?
A: The IC50 was over 10000 nM.

Q: And the IC50 (NCI-H358 (K-Ras G12C))?
A: Its IC50 is 100 to 1000 nM.

Q: What does the source list for `CCn1c(-c2cccnc2[C@H](C)OC)c2c3cc(ccc31)-c1cc(O)cc(c1)C[C@H](NC(=O)[C@H](C(C)C)N(C)C(=O)c1ccc([C@@H]3CN3)nc1)C(=O)N1CCC[C@H](N1)C(=O)OCC(C)(C)C2` [Example 87, 6-((S)-aziridin-2-yl)-N-((2S)-1-(((6^3S,4S)-1^1-ethyl-2^5-hydroxy-1^2-(2-((S)-1-methoxyethyl)pyridin-3-yl)-10,10-dimethyl-5,7-dioxo-6^1,6^2,6^3,6^4,6^5,6^6-hexahydro-1^1H-8-oxa-1(5,3)-indola-6(1,3)-pyridazina-2(1,3)-benzenacycloundecaphane-4-yl)amino)-3-methyl-1-oxobutan-2-yl)-N-methylnicotinamide]?
A: IC50 (AsPC-1 (K-Ras G12D) [1]; [3]): 1000 to 10000 nM; EC50 (AsPC-1 (K-Ras G12D) [2]; [4]): < 5000 nM

Q: Which results are given for `CCn1c(-c2cccnc2[C@H](C)OC)c2c3cc(ccc31)-c1cc(O)cc(c1)C[C@H](NC(=O)[C@H](C(C)C)N(C)C(=O)N1CCN(C(=O)[C@H]3CN3)CC1)C(=O)N1CCC[C@H](N1)C(=O)OCC(C)(C)C2` [Example 177, 4-((R)-aziridine-2-carbonyl)-N-((2S)-1-(((6^3S,4S)-1^1-ethyl-2^5-hydroxy-1^2-(2-((S)-1-methoxyethyl)pyridin-3-yl)-10,10-dimethyl-5,7-dioxo-6^1,6^2,6^3,6^4,6^5,6^6-hexahydro-1^1H-8-oxa-1(5,3)-indola-6(1,3)-pyridazina-2(1,3)-benzenacycloundecaphane-4-yl)amino)-3-methyl-1-oxobutan-2-yl)-N-methylpiperazine-1-carboxamide]?
A: IC50 (AsPC-1 (K-Ras G12D) [1]; [3]): 1000 to 10000 nM; EC50 (AsPC-1 (K-Ras G12D) [2]; [4]): < 5000 nM

Q: `CCn1c(-c2cccnc2[C@H](C)OC)c2c3cc(ccc31)-c1cc(O)cc(c1)C[C@H](NC(=O)[C@H](C(C)C)N(C)C(=O)CN(C)C(=O)[C@H]1CN1CCCN1CCCC1=O)C(=O)N1CCC[C@H](N1)C(=O)OCC(C)(C)C2` (stereo partly drawn) [Example 268, (2R)—N-(2-(((2S)-1-(((6^3S,4S)-1^1-ethyl-2^5-hydroxy-1^2-(2-((S)-1-methoxyethyl)pyridin-3-yl)-10,10-dimethyl-5,7-dioxo-6^1,6^2,6^3,6^4,6^5,6^6-hexahydro-1^1H-8-oxa-1(5,3)-indola-6(1,3)-pyridazina-2(1,3)-benzenacycloundecaphane-4-yl)amino)-3-methyl-1-oxobutan-2-yl)(methyl)amino)-2-oxoethyl)-N-methyl-1-(3-(2-oxopyrrolidin-1-yl)propyl)aziridine-2-carboxamide] was tested. Which IC50 (AsPC-1 (K-Ras G12D) [1]; read-out: AsPC-1 Cell Viability IC50, AsPC-1, K-Ras G12D, 5-day treatment) did it give?
A: Its IC50 is 1000 to 10000 nM.

Q: And the EC50 (AsPC-1 (K-Ras G12D) [2]; ASPC1, read-out: pERK EC50 (AsPC-1 KRAS G12D))?
A: The EC50 was under 5000 nM.
